# Data taken from patent publication EP4603105A1, “PHARMACEUTICAL COMPOSITION CONTAINING CYCLIC COMPOUND HAVING SELECTIVE KRAS INHIBITORY EFFECT AGAINST HRAS AND NRAS” (CHUGAI SEIYAKU KABUSHIKI KAISHA, priority 2022, dated 2024).
# Where a SMILES comes first, the peptide text is derived from it. Bridges are numbered along the chain shown (N, C = ends). [ ]: non-standard residue; d: D form. The star is where a group is joined. hPhe(3-Cl-4-CF3) = N[C@@H](CCc1ccc(C(F)(F)F)c(Cl)c1)C(=O)O; NPrPhe(4-CF3) = CCCN[C@@H](Cc1ccc(C(F)(F)F)cc1)C(=O)O; NMeGly(cPent) = CN[C@H](C(=O)O)C1CCCC1; Gly(cBu) = N[C@H](C(=O)O)C1CCC1; NMeD = CN[C@@H](CC(=O)O)C(=O)O; NMeL = CN[C@@H](CC(C)C)C(=O)O; Morpholide = C1CN(*)CCO1; NMeA = CN[C@@H](C)C(=O)O; Ac5c = NC1(C(=O)O)CCCC1; Aze = O=C(O)[C@@H]1CCN1; Sar = CNCC(=O)O
# What was measured:
# [1] = biological target: GDP-bound NRAS wild-type protein (Homo sapiens, UniProt P01111); assay: Binding to NRAS by surface plasmon resonance (SPR), KD and KD ratio to KRAS
# GDP-bound NRAS wild-type protein, sequence (P01111 whole entry): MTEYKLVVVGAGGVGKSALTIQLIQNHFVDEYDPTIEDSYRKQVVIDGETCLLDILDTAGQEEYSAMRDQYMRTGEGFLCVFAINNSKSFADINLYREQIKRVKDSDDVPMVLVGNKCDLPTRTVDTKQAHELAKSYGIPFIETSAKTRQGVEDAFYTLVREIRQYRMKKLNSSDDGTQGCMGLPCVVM
# Method in brief: (§1)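 Biotinylated GDP-bound RAS was captured at about 100–300 RU. Running buffer: HBS pH 7.4, 10 mM MgCl2, 10 µM GDP, 1 mM DTT, 0.01% Tween 20, 4% DMSO.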
# HRAS wild-type protein = HRAS wild-type protein (Homo sapiens, UniProt P01112); assay: Binding to HRAS by surface plasmon resonance (SPR), KD and KD ratio to KRAS
# HRAS wild-type protein, sequence (P01112 whole entry): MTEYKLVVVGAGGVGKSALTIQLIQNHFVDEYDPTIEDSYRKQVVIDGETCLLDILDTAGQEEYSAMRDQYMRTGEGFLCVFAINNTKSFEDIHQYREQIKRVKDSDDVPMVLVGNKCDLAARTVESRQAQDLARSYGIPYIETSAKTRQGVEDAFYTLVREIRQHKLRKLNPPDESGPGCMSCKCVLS
# Method in brief: as §1
# [2] = test system: human lung cancer strain NCI-H441; assay type: cell-based
# Method in brief: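 Step one: dispense the test compound in serial DMSO dilutions. Step three: add the reagent and measure […].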
# [3] = ratio of KD for GDP-bound NRAS wild-type protein to KD for KRAS
# [4] = ratio of KD for HRAS wild-type protein to KD for KRAS
# [5] = ratio of the KD value with respect to GDP-bound NRAS wild-type protein to the KD value with respect to KRAS
# [6] = ratio of the KD value with respect to HRAS wild-type protein to the KD value with respect to KRAS
IC50 [2],SMILES,"NRAS /KRAS [1, 3]",HRAS /KRAS (HRAS wild-type protein; [4]),"NRAS /KRAS [1, 5]",HRAS /KRAS (HRAS wild-type protein; [6])
1.1 nM,CCO[C@@H]1C[C@H]2C(=O)NC3(CC(C)(C)C3)C(=O)N(C)[C@@H](C3CCCC3)C(=O)N(C)[C@H](C(=O)N(C)C)CC(=O)N(C)[C@H]3CCCCCc4ccc(cc4)C[C@@H](C(=O)N(C)CC(=O)N[C@@H](CCc4ccc(C(F)(F)F)c(OC)c4)C(=O)N2C1)N1CC/C=C\C[C@@H](C1=O)N(C)C(=O)CN(C1CC1)C(=O)[C@H]([C@@H](C)CC)NC3=O [PP3075],A (a compound having 10 or more and less than 20 is denoted as A),A (a compound having 10 or more and less than 20 is denoted as A),,
11 nM,CCCN(C)C(=O)[C@@H]1CC(=O)N(C)[C@@H](COCC)C(=O)N[C@@H]([C@@H](C)CC)C(=O)N(C)CC(=O)N(C)[C@H]2C/C=C\CCN(C2=O)[C@@H](Cc2ccc(C(F)(F)F)cc2)C(=O)N(C)CC(=O)N[C@@H](CCc2cc(F)c(C(F)(F)F)c(F)c2)C(=O)N2C[C@H](OCC)C[C@H]2C(=O)NC2(CCC2)C(=O)N(C)[C@@H](C2CCCC2)C(=O)N1C [PP1988],,,A (a compound having 10 or more and less than 20 is denoted as A),A (a compound having 10 or more and less than 20 is denoted as A)
12.2 nM,CCC[C@@H]1C[C@H]2C(=O)NC3(CC(C)(C)C3)C(=O)N(C)[C@@H](C3CCCC3)C(=O)N(C)[C@H](C(=O)N(C)C)CC(=O)N(C)[C@@H](COC)C(=O)N[C@@H]([C@@H](C)CC)C(=O)N(C)CC(=O)N(C)[C@H]3C/C=C\CCN(C3=O)[C@@H](Cc3ccc(C(F)(F)F)cc3)C(=O)N(C)CC(=O)N[C@@H](CCc3ccc(C(F)(F)F)c(Cl)c3)C(=O)N2C1 [PP2275],,,A (a compound having 10 or more and less than 20 is denoted as A),A (a compound having 10 or more and less than 20 is denoted as A)
14.2 nM,CCO[C@@H]1C[C@H]2C(=O)NC3(CC(C)(C)C3)C(=O)N(C)[C@@H](C(CC)CC)C(=O)N(C)[C@H](C(=O)N(C)C)CC(=O)N(C)[C@@H](CC3CCC3)C(=O)N[C@@H]([C@@H](C)CC)C(=O)N(C)CC(=O)N(C)[C@H]3C/C=C\CCN(C3=O)[C@@H](Cc3ccc(C(F)(F)F)cc3)C(=O)N(C)CC(=O)N[C@@H](CCc3ccc(C(F)(F)F)c(OC)c3)C(=O)N2C1 [PP2164],,,A (a compound having 10 or more and less than 20 is denoted as A),A (a compound having 10 or more and less than 20 is denoted as A)
6.5 nM,CCCN1C(=O)[C@@H]2CCN2C(=O)[C@H](C)N(C)C(=O)[C@H](C2CCC2)NC(=O)[C@H](CC(C)C)N(C)C(=O)C[C@@H](C(=O)N2CCOCC2)N(C)C(=O)[C@H](C2CCCC2)N(C)C(=O)C2(CCCC2)NC(=O)[C@@H]2CCCN2C(=O)[C@H](CCc2ccc(C(F)(F)F)c(Cl)c2)NC(=O)CN(C)C(=O)[C@@H]1Cc1ccc(C(F)(F)F)cc1 [PP0271] ([NMeL][Gly(cBu)][NMeA][Aze][NPrPhe(4-CF3)][Sar][hPhe(3-Cl-4-CF3)]P[Ac5c][NMeGly(cPent)][NMeD]-Morpholide; lactam N-11),C (A compound having a KD ratio of 0.1 or more and less than 3 is denoted as C),B (a compound having 3 or more and less than 10 is denoted as B),,
12.8 nM,CCO[C@@H]1C[C@H]2C(=O)NC3(CCCC3)C(=O)N(C)[C@@H](C3CCCC3)C(=O)N(C)[C@H](C(=O)N(C)C)CC(=O)N(C)[C@@H](CC(C)C)C(=O)N[C@@H]([C@@H](C)CC)C(=O)N(C)CC(=O)N(C)[C@H]3C/C=C\CCN(C3=O)[C@@H](Cc3ccc(C(F)(F)F)cc3)C(=O)N(C)CC(=O)N[C@@H](CCc3ccc(Cl)c(Cl)c3)C(=O)N2C1 [PP2837],AA (a compound having 20 or more is denoted as AA),A (a compound having 10 or more and less than 20 is denoted as A),,
13.7 nM,CCC[C@H]1C(=O)N[C@@H](C2CCCCC2)C(=O)N(C)CC(=O)N(C)[C@H]2C/C=C\CCN(C2=O)[C@@H](Cc2ccc(C(F)(F)F)cc2)C(=O)N(C)CC(=O)N[C@@H](CCc2ccc(C(F)(F)F)c(Cl)c2)C(=O)N2C[C@H](OCC)C[C@H]2C(=O)NC2(CC(C)(C)C2)C(=O)N(C)[C@@H](C2CCCC2)C(=O)N(C)[C@H](C(=O)N(C)C)CC(=O)N1C [PP2996],AA (a compound having 20 or more is denoted as AA),A (a compound having 10 or more and less than 20 is denoted as A),,

SMILES,IC50 [2],"NRAS /KRAS [1, 3]",HRAS /KRAS (HRAS wild-type protein; [4]),"NRAS /KRAS [1, 5]",HRAS /KRAS (HRAS wild-type protein; [6])
CCC[C@H]1C(=O)N[C@@H]([C@@H](C)CC)C(=O)N(C2CC2)CC(=O)N(C)[C@H]2C/C=C\CCN(C2=O)[C@@H](Cc2ccc(C(F)(F)F)cc2)C(=O)N(C)CC(=O)N[C@@H](CCc2ccc(C(F)(F)F)c(OC)c2)C(=O)N2C[C@H](OCC)C[C@H]2C(=O)N(C)C2(CCC2)C(=O)N(C)[C@@H](C2CCCC2)C(=O)N(C)[C@H](C(=O)N2CCCCC2)CC(=O)N1C [PP3095],33.7 nM,A (a compound having 10 or more and less than 20 is denoted as A),A (a compound having 10 or more and less than 20 is denoted as A),,
